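Tested at 5 concentrations; 48 h exposure; 96-well plates; endpoints linearly interpolated, else capped at highest concentration. TGI: concentration producing complete growth inhibition.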
How the values were obtained:
Test in all cases: inhibition of tumour cell growth, NCI panel, 48 h
T-47D breast = test system: T-47D breast
A498 renal = test system: A498 renal
HCT-116 colon = test system: HCT-116 colon
SNB-19 CNS = test system: SNB-19 CNS
HT29 colon = test system: HT29 colon
ACHN renal = test system: ACHN renal
MCF7 breast = test system: MCF7 breast
COLO 205 colon = test system: COLO 205 colon
M14 melanoma = test system: M14 melanoma
IGROV1 ovarian = test system: IGROV1 ovarian
SW-620 colon = test system: SW-620 colon
HCC-2998 colon = test system: HCC-2998 colon
OVCAR-8 ovarian = test system: OVCAR-8 ovarian
MDA-MB-435 = test system: MDA-MB-435
UACC-257 melanoma = test system: UACC-257 melanoma
HOP-62 NSCLC = test system: HOP-62 NSCLC
MDA-N = test system: MDA-N
SK-MEL-2 melanoma = test system: SK-MEL-2 melanoma
CAKI-1 renal = test system: CAKI-1 renal
786-0 renal = test system: 786-0 renal
SF-539 CNS = test system: SF-539 CNS
RPMI-8226 leukemia = test system: RPMI-8226 leukemia
UACC-62 melanoma = test system: UACC-62 melanoma
TK-10 renal = test system: TK-10 renal
HS 578T breast = test system: HS 578T breast
SK-MEL-5 melanoma = test system: SK-MEL-5 melanoma
SR leukemia = test system: SR leukemia
SN12C renal = test system: SN12C renal
OVCAR-4 ovarian = test system: OVCAR-4 ovarian
KM12 colon = test system: KM12 colon
PC-3 prostate = test system: PC-3 prostate
OVCAR-5 ovarian = test system: OVCAR-5 ovarian
SF-295 CNS = test system: SF-295 CNS
K-562 leukemia = test system: K-562 leukemia
NCI-H23 lung = test system: NCI-H23 lung
OVCAR-3 ovarian = test system: OVCAR-3 ovarian
SF-268 CNS = test system: SF-268 CNS
BT-549 breast = test system: BT-549 breast
MDA-MB-231 breast = test system: MDA-MB-231 breast
NCI-H226 lung = test system: NCI-H226 lung
NCI-H522 lung = test system: NCI-H522 lung
LOX IMVI melanoma = test system: LOX IMVI melanoma
U251 CNS = test system: U251 CNS
HOP-92 NSCLC = test system: HOP-92 NSCLC
UO-31 renal = test system: UO-31 renal
SK-MEL-28 melanoma = test system: SK-MEL-28 melanoma
MOLT-4 leukemia = test system: MOLT-4 leukemia
MALME-3M melanoma = test system: MALME-3M melanoma
NCI/ADR-RES ovarian = test system: NCI/ADR-RES ovarian
A549 NSCLC = test system: A549 NSCLC
NCI-H460 lung = test system: NCI-H460 lung
HCT-15 colon = test system: HCT-15 colon
DU-145 prostate = test system: DU-145 prostate
EKVX NSCLC = test system: EKVX NSCLC
HL-60(TB) leukemia = test system: HL-60(TB) leukemia
RXF 393 renal = test system: RXF 393 renal
SK-OV-3 ovarian = test system: SK-OV-3 ovarian
CCRF-CEM leukemia = test system: CCRF-CEM leukemia
SNB-75 CNS = test system: SNB-75 CNS

Q: Which results are given for `Nc1nc2c(c(=O)[nH]1)CN(CCCN1CCOCC1)CN2`?
A: TGI (T-47D breast): > 100 µM; TGI (A498 renal): > 100 µM; TGI (HCT-116 colon): > 100 µM; TGI (SNB-19 CNS): > 100 µM; TGI (HT29 colon): > 100 µM; TGI (ACHN renal): > 100 µM; TGI (MCF7 breast): > 100 µM; TGI (COLO 205 colon): > 100 µM; TGI (M14 melanoma): > 100 µM; TGI (IGROV1 ovarian): > 100 µM; TGI (SW-620 colon): > 100 µM; TGI (HCC-2998 colon): > 100 µM; TGI (OVCAR-8 ovarian): > 100 µM; TGI (MDA-MB-435): > 100 µM; TGI (UACC-257 melanoma): > 100 µM; TGI (HOP-62 NSCLC): > 100 µM; TGI (MDA-N): > 100 µM; TGI (SK-MEL-2 melanoma): > 100 µM; TGI (CAKI-1 renal): > 100 µM; TGI (786-0 renal): > 100 µM; TGI (SF-539 CNS): > 100 µM; TGI (RPMI-8226 leukemia): > 100 µM; TGI (UACC-62 melanoma): > 100 µM; TGI (TK-10 renal): > 100 µM; TGI (HS 578T breast): > 100 µM; TGI (SK-MEL-5 melanoma): > 100 µM; TGI (SR leukemia): > 100 µM; TGI (SN12C renal): > 100 µM; TGI (OVCAR-4 ovarian): > 100 µM; TGI (KM12 colon): > 100 µM; TGI (PC-3 prostate): > 100 µM; TGI (OVCAR-5 ovarian): > 100 µM; TGI (SF-295 CNS): > 100 µM; TGI (K-562 leukemia): > 100 µM; TGI (NCI-H23 lung): > 100 µM; TGI (OVCAR-3 ovarian): > 100 µM; TGI (SF-268 CNS): > 100 µM; TGI (BT-549 breast): > 100 µM; TGI (MDA-MB-231 breast): > 100 µM; TGI (NCI-H226 lung): > 100 µM; TGI (NCI-H522 lung): > 100 µM; TGI (LOX IMVI melanoma): > 100 µM; TGI (U251 CNS): > 100 µM; TGI (HOP-92 NSCLC): > 100 µM; TGI (UO-31 renal): > 100 µM; TGI (SK-MEL-28 melanoma): > 100 µM; TGI (MOLT-4 leukemia): > 100 µM; TGI (MALME-3M melanoma): > 100 µM; TGI (NCI/ADR-RES ovarian): > 100 µM; TGI (A549 NSCLC): > 100 µM; TGI (NCI-H460 lung): > 100 µM; TGI (HCT-15 colon): > 100 µM; TGI (DU-145 prostate): > 100 µM; TGI (EKVX NSCLC): > 100 µM

Q: How did the TGI (T-47D breast) turn out when `COc1ccc(Nc2nc3cc(C(F)(F)F)ccc3n3cccc23)cc1OC` was run?
A: 34.9 µM

Q: What about the TGI (A498 renal) of the same compound?
A: 32.6 µM

Q: What about the TGI (HCT-116 colon) of the same compound?
A: 27.4 µM

Q: And the TGI (SNB-19 CNS)?
A: 60.9 µM

Q: What about the TGI (HT29 colon) of the same compound?
A: 24.1 µM

Q: What about the TGI (ACHN renal) of the same compound?
A: 74.3 µM

Q: What about the TGI (MCF7 breast) of the same compound?
A: 51.5 µM

Q: What about the TGI (M14 melanoma) of the same compound?
A: 31.3 µM

Q: And the TGI (IGROV1 ovarian)?
A: > 100 µM

Q: And the TGI (SW-620 colon)?
A: > 100 µM

Q: What about the TGI (HCC-2998 colon) of the same compound?
A: 27.3 µM

Q: What about the TGI (OVCAR-8 ovarian) of the same compound?
A: 87.8 µM

Q: What about the TGI (MDA-MB-435) of the same compound?
A: 36.3 µM

Q: What about the TGI (UACC-257 melanoma) of the same compound?
A: 34.8 µM

Q: What about the TGI (HOP-62 NSCLC) of the same compound?
A: 48.7 µM

Q: What about the TGI (MDA-N) of the same compound?
A: 29.3 µM

Q: What about the TGI (SK-MEL-2 melanoma) of the same compound?
A: 30.9 µM

Q: What about the TGI (HL-60(TB) leukemia) of the same compound?
A: 67 µM

Q: What about the TGI (CAKI-1 renal) of the same compound?
A: > 100 µM

Q: And the TGI (786-0 renal)?
A: 24.7 µM

Q: And the TGI (SF-539 CNS)?
A: 34 µM

Q: And the TGI (RPMI-8226 leukemia)?
A: 55.1 µM

Q: What about the TGI (UACC-62 melanoma) of the same compound?
A: 28.9 µM

Q: What about the TGI (TK-10 renal) of the same compound?
A: 49 µM

Q: And the TGI (HS 578T breast)?
A: > 100 µM

Q: And the TGI (SK-MEL-5 melanoma)?
A: 27.6 µM

Q: What about the TGI (SR leukemia) of the same compound?
A: 34.9 µM

Q: What about the TGI (RXF 393 renal) of the same compound?
A: 29 µM

Q: And the TGI (KM12 colon)?
A: 34 µM

Q: And the TGI (PC-3 prostate)?
A: 26.8 µM

Q: What about the TGI (OVCAR-5 ovarian) of the same compound?
A: 58 µM

Q: What about the TGI (SF-295 CNS) of the same compound?
A: 30.1 µM

Q: What about the TGI (K-562 leukemia) of the same compound?
A: 52.6 µM

Q: What about the TGI (NCI-H23 lung) of the same compound?
A: 43.2 µM

Q: What about the TGI (OVCAR-3 ovarian) of the same compound?
A: 54 µM

Q: What about the TGI (SK-OV-3 ovarian) of the same compound?
A: 92.1 µM

Q: And the TGI (SF-268 CNS)?
A: > 100 µM

Q: What about the TGI (CCRF-CEM leukemia) of the same compound?
A: > 100 µM

Q: What about the TGI (BT-549 breast) of the same compound?
A: 56.1 µM

Q: And the TGI (MDA-MB-231 breast)?
A: 36.5 µM

Q: And the TGI (NCI-H522 lung)?
A: 41.5 µM

Q: What about the TGI (LOX IMVI melanoma) of the same compound?
A: 15.8 µM

Q: And the TGI (U251 CNS)?
A: 28.6 µM

Q: And the TGI (HOP-92 NSCLC)?
A: 47.5 µM

Q: And the TGI (UO-31 renal)?
A: 63.4 µM

Q: What about the TGI (SK-MEL-28 melanoma) of the same compound?
A: > 100 µM

Q: What about the TGI (MOLT-4 leukemia) of the same compound?
A: 37.8 µM

Q: What about the TGI (MALME-3M melanoma) of the same compound?
A: 54.4 µM

Q: And the TGI (NCI/ADR-RES ovarian)?
A: 50.1 µM

Q: And the TGI (A549 NSCLC)?
A: 50.8 µM

Q: What about the TGI (NCI-H460 lung) of the same compound?
A: 28.7 µM

Q: What about the TGI (HCT-15 colon) of the same compound?
A: 56.1 µM

Q: And the TGI (DU-145 prostate)?
A: 52.6 µM

Q: What about the TGI (EKVX NSCLC) of the same compound?
A: 58.5 µM

Q: And the TGI (SNB-75 CNS)?
A: 39.5 µM

— PubChem BioAssay (NCI)
